Where two headings read alike, the source gives them in different places.
Target: T1, human M5 mAChR (Homo sapiens, UniProt P08912)
T1 sequence (P08912 1-532): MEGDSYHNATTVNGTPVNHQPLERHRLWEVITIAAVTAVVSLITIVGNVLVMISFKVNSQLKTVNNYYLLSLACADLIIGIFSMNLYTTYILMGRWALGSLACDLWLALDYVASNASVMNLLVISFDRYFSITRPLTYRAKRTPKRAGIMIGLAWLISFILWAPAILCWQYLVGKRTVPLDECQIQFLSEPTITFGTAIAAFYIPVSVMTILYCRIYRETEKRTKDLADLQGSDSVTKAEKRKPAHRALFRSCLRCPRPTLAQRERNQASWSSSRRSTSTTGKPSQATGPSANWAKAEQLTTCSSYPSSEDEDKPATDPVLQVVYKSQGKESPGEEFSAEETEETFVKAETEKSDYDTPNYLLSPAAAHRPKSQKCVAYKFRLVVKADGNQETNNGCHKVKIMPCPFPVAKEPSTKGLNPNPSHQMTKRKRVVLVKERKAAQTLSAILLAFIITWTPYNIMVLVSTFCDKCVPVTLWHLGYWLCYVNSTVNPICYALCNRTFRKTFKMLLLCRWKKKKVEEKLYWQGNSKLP
Assay: hM5 functional inhibition assay
Type: cell-based
Settings: for hM5 Percent inhibition (Table 3): single point at 10 μM, EC80 of ACh, average of three determinations

Row | hM5 Percent inhibition (Table 3) | inhibition at 10 µM (read-out: hM5 Percent inhibition (Table 2)) [%] | inhibition at 10 µM (read-out: hM5 Percent inhibition (Table 3)) [%] | inhibition at 10 µM (read-out: maximum M5 inhibition, single point M5 inhibition assay) [%] | activity in the 10 μM single point assay (resynthesized 4, 10 μM) [%] | SMILES
1 | Inactive |  |  |  |  | Cn1cnc(S(=O)(=O)N2CCC3(CC2)OCCS3)c1 [Compound 9h]
2 | Inactive |  |  |  |  | Cc1nn(C)cc1S(=O)(=O)N1CCC2(CC1)OCCS2 [Compound 9b]
3 |  | 84 | 88 | 50 | 88 | Cc1nn(C)c(C)c1S(=O)(=O)N1CCC2(CC1)OCCS2 [Compound 4, 8-((1,3,5-trimethyl-1H-pyrazol-4-yl)sulfonyl)-1-oxa-4-thia-8-azaspiro[4,5]decane]
